Here are results for 78 molecules from the supplement of paper PMC8837787.

Molecules are shown by their SMILES.

For assay [1], the system named is Saccharomyces cerevisiae ABC16-Green Monster. The note with it: 18 h; 30 °C; YPD. The protocol:
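Growth inhibition of the drug-sensitive S. cerevisiae ABC16-Green Monster strain (16 ABC transporters deleted) in YPD at 30 °C for 18 h. […] dilution series […] in biological replicates; IC50 from OD600 (18 h minus 0 h) fitted by variable-slope nonlinear regression in GraphPad Prism. Library compounds were first screened at 150 µM, and only those with at least 70% inhibition went to dose-response; the rest are marked inactive.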

Assay [2] has the same test system. Briefly: growth inhibition at single dose (up to 150 µM), below the 70% cut-off for dose-response; higher = more potent. The following applies: 18 h; 30 °C; YPD. In a few lines: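 Drug-sensitive S. cerevisiae ABC16-Green Monster cells were grown overnight in YPD at 30 °C and diluted to log phase (OD600 0.1–0.2). Each library compound was added at one dose of 150 µM to 200 µl culture per well in 96-well plates, in biological duplicates, with untreated cultures alongside. OD600 was read at 0 h and after 18 h at 30 °C. The value is percent growth inhibition; compounds below 70% in both replicates were not taken to dose-response.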

`Cc1cc(C)n(-c2ccc(CN3c4ccc(S(N)(=O)=O)cc4CC3C)cc2)n1` (stereo not drawn) returned an IC50 growth inhibition in assay [1] of 129 µM. On to `c1ccc(-c2cn3nc(NCc4ccccc4CN4CCOCC4)sc3n2)cc1`, for which the IC50 growth inhibition in assay [1] is 106 µM. Turning to `Cc1cc(C(=O)NCc2nnc3ccccn23)c(C)n1C1CCCCC1`, the “growth inhibition at single dose” value in assay [2] was under 70%.

Turning to `O=c1c2ccccc2cnn1-c1nc2ccccc2[nH]1`, the “growth inhibition at single dose” value in assay [2] is under 70%. Regarding `COc1ccc(C)cc1N1CC(C(=O)Nc2nc3ccccc3[nH]2)CC1=O` (stereo not drawn), in assay [2], the “growth inhibition at single dose” value was under 70%.

As to `C#CCNS(=O)(=O)c1ccc(C(=O)Nc2ccccc2O)cc1`, the “growth inhibition at single dose” value in assay [2] is under 70%. On the same count and under the same terms, to `COc1cc(C2=NCCN2)cc2cc(-c3ccc(C4=NCCN4)cc3)oc12` belongs under 70%. As for `Cc1ccc(-c2noc(CN3CCN(c4cc(C)nc(N)n4)CC3)n2)cc1`, the “growth inhibition at single dose” value in assay [2] is under 70%.

Take `Cc1nc(NCc2ccco2)c2c(C)c(C)sc2n1`: the “growth inhibition at single dose” value in assay [2] is under 70%. On to `O=C(c1cc(-c2ccccc2)n[nH]1)N1CCN(S(=O)(=O)c2ccccc2)CC1`, for which, in assay [2], the “growth inhibition at single dose” value was under 70%. Turning to `COc1ccc(NC(=O)C2c3ccccc3C(=O)N(CC(C)C)C2c2cccs2)cc1` (stereo not drawn), the “growth inhibition at single dose” value in assay [2] is under 70%. For the molecule `Cc1ccc(-c2cc(C(=O)Nc3cccnc3)c3cc(Br)ccc3n2)cc1`, in assay [2], the “growth inhibition at single dose” value was under 70%. As to `COc1ccc(C(O)(CCC(C)C)C(CN2CCOCC2)c2ccc(Cl)cc2)cc1` (stereo not drawn), the “growth inhibition at single dose” value in assay [2] is under 70%. As to `Cc1cc(C)n2ncc(C(=O)Nc3cccc(/C=C/c4ccccn4)c3)c2n1`, the “growth inhibition at single dose” value in assay [2] was under 70%. Still for that read-out and setting: to `O=C1O[C@@H](COc2ccon2)CN1c1cc(F)c(C2=CCN(Cc3ccccc3)CC2)c(F)c1` belongs under 70%; to `Cn1ccnc1SCC(=O)Nc1ccc(C(=O)Nc2ncccc2O)cc1`, under 70%. `CCOc1ccc(Nc2ccnc3cc(Cl)ccc23)cc1`: the “growth inhibition at single dose” value in assay [2] is under 70%. Regarding `Nc1nn(C(=O)c2csc3ccccc23)c2ccccc12`, the “growth inhibition at single dose” value in assay [2] was under 70%. Same read-out and setting: to `Cc1ccc(C(=O)OC(C)C(=O)N2CCCC2)cc1S(=O)(=O)N1CCCCC1` (stereo not drawn) belongs under 70%. On to `FC(F)(F)c1nc(N2CCN(c3ccncc3)CC2)c2ccccc2n1`, for which, in assay [2], the “growth inhibition at single dose” value is under 70%.

For the molecule `c1ccc(C2=Nc3ccccc3N=C(c3ccccc3)c3ccccc32)cc1`, the “growth inhibition at single dose” value in assay [2] was under 70%. For the molecule `Cc1ncc(-c2ccnc(Nc3ccc(S(C)(=O)=O)cc3)n2)n1C(C)C`, the “growth inhibition at single dose” value in assay [2] was under 70%.

For the molecule `CCOc1ccc2cc(-c3nn(C(C)(C)C)c(N)c3C(N)=O)cnc2c1`, in assay [2], the “growth inhibition at single dose” value is under 70%. With `COc1ccc(C2=NOC(C(N)=O)C2)cc1OC` (stereo not drawn), in assay [2], the “growth inhibition at single dose” value was under 70%. `Cc1ccc2c(c1)s/c(=N/C(=O)c1cccs1)n2C`: in assay [2], the “growth inhibition at single dose” value was under 70%.

Consider `C=CCc1c(C)nc2ccccc2c1O`, for which, in assay [2], the “growth inhibition at single dose” value was under 70%. As for `O=C(CCl)NCCOc1ccc(Cl)cc1Cl`, the “growth inhibition at single dose” value in assay [2] was under 70%. Turning to `O=C(CC1Sc2ccccc2NC1=O)NCCCn1ccc2ccccc21` (stereo not drawn), in assay [2], the “growth inhibition at single dose” value is under 70%. For the molecule `COC(=O)c1cccc2oc(-c3cccc(OC)c3NC(=O)c3cc(-c4ccccc4)on3)nc12`, the “growth inhibition at single dose” value in assay [2] was under 70%. As to `O=C(NCCN1CCCC1)c1cc(NCCN2CCOCC2)nc2ccc(Cl)cc12`, the “growth inhibition at single dose” value in assay [2] was under 70%. For the molecule `CCCN(CCC)CC(O)COc1ccccc1C(=O)Nc1ccccc1` (stereo not drawn), the “growth inhibition at single dose” value in assay [2] was under 70%. Turning to `Cc1[nH]c2cc(F)cc(F)c2c(=O)c1-c1ccc(Oc2ccc(OC(F)(F)F)cc2)cc1`, in assay [2], the “growth inhibition at single dose” value is under 70%. With `COCCn1c(C)nc2ccccc2c1=O`, the “growth inhibition at single dose” value in assay [2] is under 70%. Turning to `Cn1ncc(C#N)c1NC(=O)c1cccc(Oc2ccccc2)c1`, the “growth inhibition at single dose” value in assay [2] was under 70%. On to `CCOC(=O)c1ccc2nc(-c3ccccc3)cc(O)c2c1`, for which the “growth inhibition at single dose” value in assay [2] is under 70%. With `Cc1nc(-c2ccccn2)nc(N2CCCC2)c1Cl`, in assay [2], the “growth inhibition at single dose” value was under 70%. Consider `CC(=O)c1ccc(NC(=O)CSc2nc(-c3ccccc3Cl)ns2)cc1`, for which the “growth inhibition at single dose” value in assay [2] was under 70%. Still for that read-out and setting: to `CC1CCN(Cc2ccc(NC(=O)c3cc4ccc5cccnc5c4[nH]3)cc2)CC1` belongs under 70%; to `Cc1ccc(NS(=O)(=O)c2ccc(C(=O)Nc3ncccc3O)cc2)cc1`, under 70%; to `CC(C)=CCN1CCC(C(=O)Nc2ccc(-c3nc4ccccc4[nH]3)cc2)CC1`, under 70%.

For the molecule `CC(c1ccc(-c2ccccc2)c(F)c1)c1nn2c(-c3ccco3)nnc2s1` (stereo not drawn), the “growth inhibition at single dose” value in assay [2] was under 70%. With `CCn1nc(C(=O)NCc2ccc(OC)cc2)c2c1CCN(C(=O)C1Cc3ccccc3O1)C2` (stereo not drawn), the “growth inhibition at single dose” value in assay [2] was under 70%.

Consider `CNc1nnc(Sc2ncnc3ccsc23)s1`, for which, in assay [2], the “growth inhibition at single dose” value was under 70%. As to `FC(F)(F)c1cccc(CNc2ncnc3sccc23)c1`, the “growth inhibition at single dose” value in assay [2] is under 70%.

On to `CC(C)(C)c1ccc(N[C@@H]2CCCC[C@H]2NC(=O)c2ccco2)cc1`, for which the “growth inhibition at single dose” value in assay [2] was under 70%. Regarding `CC1CS(=O)(=O)CCN1/N=C/c1ccc([N+](=O)[O-])o1` (stereo not drawn), in assay [2], the “growth inhibition at single dose” value was under 70%. As for `Cc1ccc(NC(=O)CC2COc3ccccc3O2)cc1Cl` (stereo not drawn), in assay [2], the “growth inhibition at single dose” value is under 70%. For `Cc1ccc(-c2cc(C(=O)Nc3ccc(S(=O)(=O)N4CCCCC4)cc3)[nH]n2)c(O)c1`, the “growth inhibition at single dose” value in assay [2] is under 70%.

For the molecule `CCOC(=O)c1c[nH]c2c(F)cc(F)cc2c1=O`, the “growth inhibition at single dose” value in assay [2] was under 70%.

With `Cc1cc(Nc2cccc(C(F)(F)F)c2)n2ncc(C#N)c2n1`, in assay [2], the “growth inhibition at single dose” value is under 70%. For `CC(C)c1ncc(-c2ccncc2)c([C@H]2CC[C@H](CNC(=O)c3cccnc3)CC2)n1`, in assay [2], the “growth inhibition at single dose” value was under 70%.

With `O=C(Nc1ccc(N2CCCCC2)c(Cl)c1)c1ccc(Br)o1`, in assay [2], the “growth inhibition at single dose” value was under 70%. Take `CC1=C(CC(=O)c2cccc([N+](=O)[O-])c2)C(=O)c2ccccc2C1=O`: the “growth inhibition at single dose” value in assay [2] is under 70%.

For the molecule `CN(C)CCCNc1c2ccccc2nc2ccccc12`, in assay [2], the “growth inhibition at single dose” value is under 70%. For `O=C(Nc1ccc(N2CCN(Cc3ccccc3)CC2)cc1)c1cccs1`, in assay [2], the “growth inhibition at single dose” value is under 70%. On to `CCCCN(CCCC)S(=O)(=O)c1ccc(NC(=O)c2ccco2)cc1`, for which, in assay [2], the “growth inhibition at single dose” value is under 70%. With `CCc1nc2ccccc2n1CC(O)COc1cc(C)ccc1Cl` (stereo not drawn), in assay [2], the “growth inhibition at single dose” value is under 70%. Turning to `Cc1cccc(-c2nc(Nc3ccncn3)c3sccc3n2)n1`, the “growth inhibition at single dose” value in assay [2] was under 70%. Same read-out and setting: to `O=C(Nc1ccc(I)cc1)C1CCN(C(=O)c2ccncc2)CC1` belongs under 70%; to `Cc1ccc(S(=O)(=O)c2c(COC(=O)c3cccc(C)c3)c(-c3ccccc3)nn2C)cc1`, under 70%; to `COc1ccc(-n2nc(C)c3c2NC(=O)CC3c2ccc3c(c2)OCO3)cc1` (stereo not drawn), under 70%.

In the case of `C=CC12CCN(CC1)C(C(O)c1ccnc3ccc(OC)cc13)C2` (stereo not drawn), the “growth inhibition at single dose” value in assay [2] was under 70%. On to `CNc1snc(C)c1C(=O)Nc1ccc(OC)c(Cc2ccccc2)c1`, for which, in assay [2], the “growth inhibition at single dose” value is under 70%. For `CCc1cc(C(=O)Nc2ncccc2O)sc1C`, in assay [2], the “growth inhibition at single dose” value was under 70%. `COc1ccc(N(CCCN2C(=O)c3cccc4cccc(c34)C2=O)C(=O)c2ccccc2Cl)cc1`: the “growth inhibition at single dose” value in assay [2] was under 70%. In the case of `CCSc1nccc(-c2ccc3c(c2)CCC(C)(C)O3)n1`, in assay [2], the “growth inhibition at single dose” value is under 70%. The same measure, in the same setting: to `O=C(Nc1ncccc1O)c1ccc(-n2cnc3ccccc32)cc1` belongs under 70%; to `CC(C)(C)c1ccc(C(=O)Nc2ncccc2O)cc1`, under 70%.

For the molecule `COc1cc(C2=NCCN2)ccc1-n1cc(-c2cccc(C3=NCCN3)c2)nn1`, in assay [2], the “growth inhibition at single dose” value was under 70%.

`Nc1ncnc2[nH]nc(Cc3cccc4ccccc34)c12`: in assay [2], the “growth inhibition at single dose” value is under 70%. Same read-out and setting: to `O=C1[C@@H](Oc2ccccc2)[C@@H](c2ccc(Cl)cc2)N1CCn1cnc2c(NCc3ccccc3)ncnc21` belongs under 70%; to `CCCc1ccc(-c2nc(-c3ccccc3)no2)cc1`, under 70%. On the same count and under the same terms, to `Cc1ccc(NC(=O)c2cnn(C(C)(C)C)c2C)cc1F` belongs under 70%; to `COc1cccc(N(C)S(=O)(=O)c2cccc3cc(C)cnc23)n1`, under 70%.

As to `O=C(Nc1ccccc1)c1ccc(CN2CCN(CCOc3ccccc3)CC2)cc1`, the “growth inhibition at single dose” value in assay [2] is under 70%.

Consider `CC1CC(NC(=O)c2cc3c(=O)n4ccccc4nc3n2C)CC(C)(C)C1` (stereo not drawn), for which the “growth inhibition at single dose” value in assay [2] is under 70%.

In the case of `COCc1nn2c3c(nnc2c1-c1ccccc1)C(=O)CC(c1ccccc1)C3` (stereo not drawn), in assay [2], the “growth inhibition at single dose” value is under 70%. Consider `Nc1ncnc2c1c(-c1cnc3ccccc3c1)nn2CC1CCNCC1`, for which the “growth inhibition at single dose” value in assay [2] is under 70%.
